Results from patent US12091378B2, “Therapeutics for central nervous system disorders” (1GLOBE BIOMEDICAL CO., LTD., priority 2017, dated 2024).
Where a name gives a salt, the structure may show the parent alone.

Columns and labels:
cerebellar slices [1] = assay: Remyelination on LPC-induced demyelination in cerebellar slices (MBP immunofluorescence); type: cell-based, mice; conditions: 50 μM, 3 days in culture, LPC 2 mg/mL
Protocol: (§1) Specifically, cerebellar slices from 8 week-old female mice were treated with lysophosphatidylcholine (LPC, 2 mg/mL) to induce demyelination, and then treated with representative compound of the invention, Compound 1 (50 μM), for 3 days in culture. The slices were processed for immunofluorescence staining with anti-MBP antibody. The images were captured with Nikon eclipse TE2000 microscope using Spot Advanced software (version 4.3) at 4×magnification.

cerebellar slices [2] = assay: Remyelination on CPZ-induced demyelination in cerebellar slices (MBP immunofluorescence); type: cell-based, mice; conditions: 50 μM, 3 days in culture
Protocol: as §1, with “cuprizone (CPZ)” for “lysophosphatidylcholine (LPC, 2 mg/mL)”, “invention” for “invention,”, “μM)” for “μM),”, “4×magnification. The fluorescence intensity of MBP of the cerebellar slice in each image was measured with NIH Image J.” for “4×magnification.”

Microglia = assay: LPS/IFN-induced microglia activation (Iba1 positive cells); type: cell-based, mice; conditions: 50 μM, LPS 10 ng/mL and IFN 20 ng/ml, 48 hours
Protocol: Microglia from P7 mice were treated with lipopolysaccharide (LPS, 10 ng/mL) and Interferon-gama (IFN, 20 ng/ml) to induce activation of microglia for 48 hours. To determine the effects on LPS/IFN-induced microglia activation, DMF or various embodiments of compounds of the invention (all at 50 μM) were individually added into separate culture samples 30 minutes after LPS/IFN were added. Cells were later fixed and processed for immunofluorescence (IF) staining with anti-Iba1 (ionized calcium-binding adaptor molecule 1) antibody. The number of Iba1 positive cells and the total number of cells (Hochest H33342 positive cells which includes dead and live cells) were quantified from 12 consecutive areas under fluorescent microscope with 20×objective.

[3] = tested on: CPZ-induced demyelination; assay: Prophylactic treatment of CPZ-induced demyelination in vivo (LFB staining); set-up: species or system mice; conditions: 10 mg/kg oral gavage for 7 weeks, formulations HPC or GHI F505-1
Protocol: As shown in FIGS. 9A-9C, the compound of the present invention (Compound 1) was able to prevent CPZ-induced demyelination in adult female mice. FIG. 9A illustrates the schematic of the study. Eight-week old female mice were fed a diet containing 0.3% (w/w) of CPZ to induce demyelination for 6 weeks. The control mice received regular mouse chow. In the meantime, CPZ fed mice received oral gavage of formulation (Vehicle) or Compound 1 (10 mg/kg) for 7 weeks. At the end of the treatment, mice were perfused, and the brains were collected and processed for analysis. The extent of myelination was examined by staining with Luxol Fast Blue (LFB). Representative images of LFB staining of mouse brain sections are shown in FIG. 9B where midline corpus callosum (CC) is delineated by dotted squares in the top panels (scale bar: 200 μm) and then shown at higher magnification in the lower panels (scale bar: 25 μm). Myelinated axons in the CC from mice fed with normal chow are stained as compacted blue (shown here as gray-colored, same for all following blue-colored pictures). […] Quantitative analysis of myelination of LFB staining is shown in FIG. 9C where myelination is scored as follows: a score of 0 means complete myelination and a score of 4 means complete demyelination. […]

CPZ-induced axon damage [4] = assay: Prophylactic treatment of CPZ-induced axonal damage in vivo (Bielschowsky's silver staining); set-up: species or system mice; conditions: 10 mg/kg oral gavage for 7 weeks, formulations HPC or GHI F505-1
Description: The mice were fed and treated with the same method as Example 9. The Bielschowsky's silver staining was used to visualize axon fiber in mouse brains. Representative images of silver staining of mouse brains sections are shown in FIG. 10A where midline corpus callosum (CC) is delineated by dotted squares in the top panels (scale bar: 200 μm) and then shown at higher magnification in the lower panels (scale bar: 25 μm). While a linear staining pattern of continuous axon fibers is present in normal control CC, axon damage with interruption of axon fibers and demyelination is observed in the CC of CPZ-treated animals. […] Quantitative analysis of silver-stained axons is shown in FIG. 10B where axon damage is scored as follows: a score of 0 means no axon damage and a score of 4 means complete axon damage. Columns “10-A” and “10-B” indicate samples treated with Compound 1 at 10 mg/kg in formulations HPC or GHI F505-1, respectively. *p<0.05, ***p<0.001 compared with control; ## p<0.01 compared with CPZ with vehicle treatment (n=4 mice).

IGF-2 = IGF-2 in plasma of CPZ MS animal model (ELISA); type: in vivo; conditions: 10 mg/kg oral gavage for 7 weeks, CPZ fed mice
Description: IGF2 is a neurotrophic factor which is essential for the development and regeneration of the nervous system, and plays a pivotal role in adult neurogenesis and cognitive function (see Fernadez A M and Torres-Aleman I, 2007, Nat Rev Neurosci 13(4):225-39; Iwamoto T and Ouchi Y, 2014, Rev Neurosci 25(4):559-74). […] FIG. 11A illustrates the schematic of the study. Experimental setup was similar to that in Example 9: eight-week old female mice were fed a diet containing 0.3% (w/w) of CPZ to induce demyelination for 6 weeks. The control mice received regular mouse chow. In the meantime, CPZ fed mice received oral gavage of formulation (Vehicle) or Compound 1 (10 mg/kg) for 7 weeks. At the end of treatment, the plasma was collected and processed for analysis. The levels of IGF-2 in mouse plasma were measured using ELISA. The scatter plot of IGF-2 concentrations found in individual mice is shown in FIG. 11B. **p<0.01 of CPZ plus Compound 1-treated group compared with control (Ctl), or CPZ-treated group (n=4).

[5] = tested on: CPZ-induced demyelination; assay: Therapeutic treatment of CPZ-induced demyelination in vivo (LFB staining); set-up: species or system mice; conditions: for Demyelination (Score of LFB staining): score 0 complete myelination, 4 complete demyelination, average ± SEM; for recovery from CPZ-induced demyelination and axon damage: therapeutic treatment, Examples 12 and 13
Protocol: As shown in FIGS. 12A-12C, the compound of the present invention was also tested in vivo to determine its therapeutic effect on promoting remyelination on CPZ-induced demyelination in comparison to DMF. Schematic of the study is depicted in FIG. 12A. Eight-week old mice were fed a diet containing 0.3% (w/w) of CPZ to induce demyelination for 6 weeks. The control mice received regular mouse chow. The CPZ fed mice received oral gavage of formulation (Vehicle), DMF or Compound 1 at the beginning of week 6 for two weeks. At the end of treatment, the brains were collected and, post fixed, processed for analysis. The myelin was stained with LFB stain. Representative images of LFB staining of mouse brain sections are shown in FIG. 12B where midline corpus callosum (CC) is delineated by squares in the top panels (scale bar: 200 μm) and then shown at higher magnification in the lower panels (scale bar: 25 μm). Quantitative analysis of myelination of LFB staining is shown in FIG. 12C where myelination is scored as follows: a score of 0 means complete myelination and a score of 4 means complete demyelination. *p<0.05, *** p<0.001 compared with CPZ with vehicle treatment (n=4-6 mice).
(§2) According to the above Examples 12 and 13, the therapeutic effects of Compound 1 and DMF on CPZ-induced demyelination and axon damage were summarized below where quantitative analysis of myelination and axon integrity in adult female mice was performed and results shown in Table 1. The scoring of myelination and axon damage was performed as described in Example 12 and Example 13. The treatments are as indicated. The average scores and SEM are shown. Statistic differences were analyzed by one way ANOVA followed by Tukey test. *p<0.05, **p<0.01, […] compared with normal control; #p<0.05, ##p<0.01, ###p<0.001 compared with CPZ plus vehicle, §§p<0.01 compared with CPZ plus DMF at 10 mg/kg (n=4-6 mice).

CPZ-induced axon damage [6] = assay: Therapeutic treatment of CPZ-induced axon damage in vivo (silver staining); set-up: species or system mice; conditions: score 0 no axon damage, 4 complete axon damage, average ± SEM
Description: Schematic of this study is depicted in FIG. 13A. Eight-week old female mice were fed a diet containing 0.3% (w/w) of CPZ to induce demyelination for 6 weeks. The control mice received regular mouse chow. The CPZ fed mice received oral gavage of formulation (Vehicle), DMF or Compound 1 at the beginning of week 6 for two weeks. At the end of treatment, the brains were collected, and post fixed, processed for morphological analysis. The axons were stained with Bielschowsky's Silver staining. Representative images of silver staining of mouse brain sections are shown in FIG. 13B where midline corpus callosum (CC) is delineated by white squares in the top panels (scale bar: 200 μm) and then shown at higher magnification in the lower panels (scale bar: 25 μm). Quantitative analysis of axon damage of silver staining is shown in FIG. 13C where axon damage is scored as follows: a score of 0 means no axon damage, and a score of 4 means complete axon damage. **p<0.01, ***p<0.001 compared with CPZ plus vehicle; ##p<0.01 compared with CPZ plus DMF (n=4-6 mice).
as §2

MBP, NF, APP, GFAP, Iba1 = assay: Molecular markers for myelination, axon integrity and glia activation in brain sections (immunofluorescence); type: in vivo, mouse; conditions: CPZ + 10 mg/kg, trend versus CPZ
Protocol: Effects of Compound 1 on molecule markers relevant to myelination, axon integrity and gliosis were also examined in the brain sections from normal control, CPZ-treated, and CPZ plus Compound 1 treated animals. Molecules in mouse brain sections were stained with respective antibodies by immunofluorescence. The fluorescent intensity of MBP- and NF-labeled fibers were measured with Image J. The number of specific antibody-stained cells in 400×microscopic fields were counted. Although statistic analysis is still in progress, the trends of the effects are clear from the images available so far.

EAE mouse model = assay: Clinical score of mouse EAE model (pilot study); type: in vivo, C57/BL6 mice; conditions: 10 mg/ml daily from EAE onset for 20 days
Protocol: EAE mouse model was induced by inoculation of MOG35-55 protein in adult C57/BL6 mice. Mean clinical score of EAE mice treated with vehicle or Compound 1 (10 mg/ml) for a duration of 42 days after immunization was shown in FIG. 14. The treatments were applied daily from the date of EAE onset for 20 days.

[7] = tested on: adult cerebellar granule neurons (CGN); assay: Adult CGN survival (Cell Counting Kit-8); type: cell-based, mice; conditions: 50 μM and 10 μM, 48 hours
Protocol: CGN cells from 8 week-old female mice (C57BL/6) were maintained in neurobasal medium with B27 supplements. 2×10^5 cells were plated in each well of a PLL-coated 48 well plate with 400 μl of culture medium. Various embodiments of novel compounds of the invention at 50 μM (FIG. 8A) and 10 μM (FIG. 8B), CNTF (10 ng/mL) or DMF (50 μM) were added respectively into the cell culture samples for 48 hours. Cell counting solution (Cell Counting Kit-8, Dojindo, 40 μL) was added to the culture, and cells were incubated at 37° C. with 5% CO2 for 20 hours. The optical densities (OD) of absorbance at 450 nm were measured with SpectraMax M3 plate reader.

[8] = 0.1 mg/kg oral gavage for two weeks
[9] = 10 mg/kg oral gavage for two weeks

Row | SMILES | remyelination on LPC-induced demyelination (MBP fluorescence intensity) (cerebellar slices [1]) | remyelination on CPZ-induced demyelination (MBP fluorescence intensity) (cerebellar slices [2]) | inhibiting microglia activation (Iba1 positive cells) (Microglia) | prevention of CPZ-induced demyelination (LFB staining) [3] | prevention of CPZ-induced axon damage (silver staining) (CPZ-induced axon damage [4]) | level of IGF-2 in mouse plasma (IGF-2) | Demyelination (Score of LFB staining) [5, 8] | Demyelination (Score of LFB staining) [5, 9] | recovery from CPZ-induced demyelination and axon damage [5] | Axon damage (Score of Silver staining) (CPZ-induced axon damage [6]; [8]) | Axon damage (Score of Silver staining) (CPZ-induced axon damage [6]; [9]) | APP (Axonal damage) (MBP, NF, APP, GFAP, Iba1) | GFAP (Astrogliosis) (MBP, NF, APP, GFAP, Iba1) | Iba 1 (Activated microglia) (MBP, NF, APP, GFAP, Iba1) | MBP (Myelin) (MBP, NF, APP, GFAP, Iba1) | NF (Neural fibers) (MBP, NF, APP, GFAP, Iba1) | persistence of effect on clinical score after termination of treatment (EAE mouse model) | average clinical scores versus vehicle (EAE mouse model; 42 days after immunization, n=5) | effect on adult CGN survival [7]
1 | COC(=O)/C=C/C(=O)OCc1ccc(COC(=O)NC(=N)NC(=N)N(C)C)cc1 [Compound 1] | strong remyelination effects | promotes remyelination | significantly better efficacy in comparison to DMF | prevents CPZ-induced demyelination | preserved the continuous staining pattern of axon fibers | significantly increase | 2.00 ± 0.26 | 1.33 ± 0.21 | robust recovery | 1.33 ± 0.21 | 0.83 ± 0.31 | ↓ | ↓ | ↓ | ↑ | ↑ | persisted for over two weeks after termination of treatment | significantly lower average clinical scores | –
2 | COC(=O)/C=C/C(=O)OC [DMF, dimethyl fumarate, reference compound] | – | – | – | – | – | – | – | 2.25 ± 0.25 | not significant | – | 2.25 ± 0.25 | – | – | – | – | – | – | – | little effect
3 | COC(=O)/C=C/C(=O)OCCCCCCOC(=O)NC(=N)NC(=N)N(C)C [Compound 2] | – | – | significant capability for inhibiting microglia activation | – | – | – | – | – | – | – | – | – | – | – | – | – | – | – | –
